Assay in all cases: growth of human tumour cells (NCI), 48 h
In experiment [1] the test system is ACHN renal.
Experiment [2] deals with HCC-2998 colon.
Experiment [3] relates to IGROV1 ovarian.
Experiment [4] has as its system LOX IMVI melanoma.
Experiment [5] has as its system RPMI-8226 leukemia.
For experiment [6], the system named is UO-31 renal.
In experiment [7] the test system is NCI-H23 lung.
Experiment [8] has as its system TK-10 renal.
Experiment [9] deals with SK-MEL-28 melanoma.

Molecules are shown by their SMILES.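 Assay format: 96-well plates, 48-hour exposure. TGI marks complete inhibition of growth.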

As to `N#CN=C(N(Cc1ccccc1)Cc1ccccc1)N(Cc1ccccc1)Cc1ccccc1`, the TGI in [1], in experiment [2], in experiment [3], in experiment [4], in [5] and in experiment [6] was above 100 µM in each case.
As to `CC(=O)O[C@H]1C(=O)[C@]2(C)[C@@H](OC(=O)OCCC(O)CO)C[C@H]3OC[C@@]3(OC(C)=O)[C@H]2[C@H](OC(=O)c2ccccc2)[C@]2(O)C[C@H](OC(=O)[C@H](O)[C@@H](NC(=O)c3ccccc3)c3ccccc3)C(C)=C1C2(C)C` (some centres not stated), the TGI in experiment [1] is above 100 µM; in experiment [2], 0.32 µM; in [3], 19.8 µM; in experiment [4] it was 20.4 µM; in [7] it was 21.7 µM; in experiment [8], above 61.2 µM. Moreover, the TGI in experiment [6] was above 100 µM.
In the case of `COc1cc(/C=C2\S/C(=N/Nc3nc(-c4ccc(Br)cc4)cs3)NC2=O)cc(OC)c1OC`, the TGI in experiment [1] came out at 25.4 µM; in experiment [2], 32.5 µM; in experiment [3] it was 37 µM; in experiment [4], 33.2 µM; in [7], 25.7 µM; in experiment [9] it was 99.1 µM. The TGI amounted to 36.6 µM in experiment [8] and 16.7 µM in experiment [6].
In the case of `CCCN=C1CCN(Cc2ccccc2)c2ccccc2N1`, the TGI is 94.1 µM in experiment [1]; 19.5 µM in [3]; 41.5 µM in experiment [7]; 28.9 µM in [5]; 29.3 µM in experiment [9]; above 100 µM in experiment [8]. The molecule further came in with a TGI in experiment [6] above 100 µM.
Turning to `CC(=O)NC1=C(NCCC(C)C)C(=O)c2ccccc2C1=O`, the TGI in experiment [1], in experiment [2], in experiment [3], in experiment [4], in experiment [7] and in experiment [9] was above 50 µM each time. The TGI in [8] and in experiment [6] was above 50 µM each time.
With `O=C(Nc1ccc(C2=NCCN2)cc1)c1cncc(C(=O)Nc2ccc(C3=NCCN3)cc2)c1`, the TGI is above 100 µM in [2]; above 100 µM in experiment [3]; above 100 µM in experiment [4]; above 100 µM in [7]; above 100 µM in experiment [5]; above 31.6 µM in experiment [9]. Also, the TGI in experiment [6] is above 100 µM.
In the case of `FC(F)(F)c1cc(Cl)cnc1N/N=C(/c1ccccc1)c1ccccn1`, the TGI in experiment [1] was 11.8 µM; in [2] it was above 100 µM; in experiment [3], 5.59 µM; in experiment [7], 14.4 µM; in [5], above 100 µM; in experiment [9], above 100 µM. In [6], the TGI was determined as 11.9 µM.
For the molecule `O=C(Cc1cccs1)N[C@@H]1C(=O)N2C(C(=O)OC(c3ccccc3)c3ccccc3)=C(CO)CS[C@H]12`, the TGI in [1], in experiment [2], in [3], in experiment [4], in experiment [7] and in [5] was above 100 µM each time. The TGI in [8] and in experiment [6] was above 100 µM throughout.
As for `Brc1ccc(N=c2nc3ccccn3n3nc(-c4ccccc4)cc23)cc1`, the TGI is above 100 µM in experiment [1]; above 100 µM in experiment [3]; above 100 µM in experiment [7]; above 100 µM in [5]; above 100 µM in experiment [9]; 95.4 µM in experiment [8]. Also, the TGI in experiment [6] was above 100 µM.
As to `O=C1c2ccccc2C2C1N2C(=O)C(F)(F)F` (configuration not stated), the TGI in experiment [1], in experiment [3], in [4], in [7], in experiment [5] and in experiment [9] was above 100 µM each time. The TGI in experiment [8] and in [6] was above 100 µM in each case.
Turning to `Cc1nc(C(N)=S)sc1/C(CC(=O)C(=O)Nc1cccc2ccc(O)cc12)=N\NC(=O)c1ccncc1`, the TGI in experiment [1], in [2], in experiment [3], in experiment [4], in [7] and in experiment [9] was above 100 µM throughout. Also, the TGI in experiment [8] and in experiment [6] was above 100 µM throughout.
For `CC(=O)Nc1ccc(-c2nnc(SCC(=O)Nc3ccc([N+](=O)[O-])cc3)o2)cc1`, the TGI was 28.7 µM in experiment [1]; 23.4 µM in experiment [3]; 18.1 µM in [4]; 25 µM in experiment [7]; above 100 µM in experiment [5]; 27.7 µM in experiment [9]. In addition, the TGI in [8] was found to be 27.9 µM; in experiment [6] it was 34.6 µM.
Take `[N-]=[N+]=Nc1cc(=O)oc2ccccc12`: the TGI in [1], in experiment [3], in experiment [4], in experiment [7], in experiment [5] and in experiment [9] was above 100 µM each time. Besides, the TGI in [8] and in [6] was above 100 µM each time.

Values taken from PubChem BioAssay (NCI).
